Experimental data: the supplement of paper PMC10307832

How the values were obtained:
Experiment in all cases: relative viability (nuclei count vs DMSO), 5 days (fraction); higher = more cells survive
Tanzisertib + AZD7762 = compound: O[C@H]1CC[C@H](Nc2ncc3nc(Nc4c(F)cc(F)cc4F)n([C@H]4CCOC4)c3n2)CC1 [Tanzisertib] + NC(=O)Nc1cc(-c2cccc(F)c2)sc1C(=O)N[C@H]1CCCNC1 [AZD7762] (partner 0.2 µM)
In short: (§1)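 Medians of duplicate plates are given as relative viability. That measure is the nuclei count in treated wells divided by the count in vehicle wells. Counts were taken on 4× images of lung cancer cell lines in 1536-well plates, 5 days after pin-tool dosing the day after seeding with one drug alone or a fixed anchor-drug dose plus five library-drug doses (not always all listed) in √10 steps.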

Tanzisertib + Trametinib = compound: O[C@H]1CC[C@H](Nc2ncc3nc(Nc4c(F)cc(F)cc4F)n([C@H]4CCOC4)c3n2)CC1 [Tanzisertib] + CC(=O)Nc1cccc(-n2c(=O)n(C3CC3)c(=O)c3c(Nc4ccc(I)cc4F)n(C)c(=O)c(C)c32)c1 [Trametinib] (partner 0.02 µM)
In short: as §1

[1] = compound: C1CNCCC1C2=CC(=NN2)C3=CC=NC=C3 + CS(=O)(=O)N1CCN(Cc2cc3nc(-c4cccc5[nH]ncc45)nc(N4CCOCC4)c3s2)CC1 [Pictilisib] (partner 1 µM)
In short: as §1

[2] = compound: O[C@H]1CC[C@H](Nc2ncc3nc(Nc4c(F)cc(F)cc4F)n([C@H]4CCOC4)c3n2)CC1 [Tanzisertib] + CC(=O)c1c(C)c2cnc(Nc3ccc(N4CCNCC4)cn3)nc2n(C2CCCC2)c1=O [Palbociclib] (partner 0.5 µM)
In short: as §1

| Cell Line | relative viability (Tanzisertib + AZD7762; first compound 0.08 µM) | relative viability (Tanzisertib + AZD7762; first compound 0.253 µM) | relative viability (Tanzisertib + AZD7762; first compound 0.8 µM) | relative viability (Tanzisertib + AZD7762; first compound 2.53 µM) | relative viability (Tanzisertib + AZD7762; first compound 8 µM) | relative viability (Tanzisertib + Trametinib; first compound 0.08 µM) | relative viability (Tanzisertib + Trametinib; first compound 0.253 µM) | relative viability (Tanzisertib + Trametinib; first compound 0.8 µM) | relative viability (Tanzisertib + Trametinib; first compound 2.53 µM) | relative viability (Tanzisertib + Trametinib; first compound 8 µM) | relative viability ([1]; first compound 0.08 µM) | relative viability ([1]; first compound 0.8 µM) | relative viability ([1]; first compound 2.53 µM) | relative viability ([1]; first compound 8 µM) | relative viability ([2]; first compound 0.08 µM) | relative viability ([2]; first compound 0.253 µM) | relative viability ([2]; first compound 0.8 µM) | relative viability ([2]; first compound 2.53 µM) | relative viability ([2]; first compound 8 µM) |
| --- | --- | --- | --- | --- | --- | --- | --- | --- | --- | --- | --- | --- | --- | --- | --- | --- | --- | --- | --- |
| 201T | 0.659 | 0.528 | 0.578 | 0.555 | 0.524 | 0.731 | 0.756 | 0.701 | 0.806 | 0.764 | 0.724 | 0.664 | 0.7 | 0.681 | 0.369 | 0.375 | 0.35 | 0.342 | 0.334 |
| A549 |  |  |  |  |  |  |  |  |  |  | 0.509 | 0.654 | 0.575 | 0.548 |  |  |  |  |  |
| A-427 | 0.756 | 0.766 | 0.885 | 0.705 | 0.662 | 0.813 | 0.745 | 0.742 | 0.736 | 0.751 | 0.707 | 0.891 | 0.685 | 0.8 | 0.565 | 0.538 | 0.52 | 0.507 | 0.511 |
| ABC-1 | 0.914 | 0.822 | 0.871 | 0.649 | 0.611 |  |  |  |  |  | 0.735 | 0.812 | 0.865 | 0.869 | 0.927 | 0.597 | 0.946 | 0.818 | 0.824 |
| BEN | 0.622 | 0.8 | 0.868 | 0.724 | 0.565 | 1.06 | 1.09 | 1.04 | 1.08 | 1.09 | 0.518 | 0.587 | 0.555 | 0.722 | 0.448 | 0.532 | 0.502 | 0.492 | 0.509 |
| CAL-12T | 0.606 | 0.79 | 0.623 | 0.636 | 0.647 | 0.317 | 0.336 | 0.396 | 0.387 | 0.432 | 0.619 | 0.549 | 0.481 | 0.616 | 0.486 | 0.447 | 0.539 | 0.422 | 0.279 |
| COR-L23 |  |  |  |  |  | 0.717 | 0.627 | 0.7 | 0.616 | 0.547 | 0.824 | 0.903 | 0.924 | 0.832 | 0.325 | 0.331 | 0.336 | 0.275 | 0.298 |
| COR-L 105 |  |  |  |  |  | 0.43 | 0.493 | 0.485 | 0.448 | 0.37 | 0.421 | 0.429 | 0.398 | 0.396 | 0.411 | 0.4 | 0.407 | 0.417 | 0.39 |
| Calu-6 |  |  |  |  |  |  |  |  |  |  | 0.843 | 1.02 | 0.971 | 0.904 |  |  |  |  |  |
| ChaGo-K-1 | 0.926 | 0.89 | 0.856 | 0.839 | 0.796 | 0.902 | 0.896 | 0.821 | 0.91 | 0.832 | 0.51 | 0.978 | 0.431 | 0.681 | 0.977 | 0.927 | 0.91 | 0.889 | 0.903 |
| EBC-1 |  |  |  |  |  |  |  |  |  |  | 0.447 | 0.425 | 0.364 | 0.409 |  |  |  |  |  |
| EKVX | 0.68 | 0.795 | 0.612 | 0.65 | 0.535 | 0.487 | 0.301 | 0.368 | 0.347 | 0.295 | 0.42 | 0.516 | 0.42 | 0.447 | 0.455 | 0.388 | 0.363 | 0.414 | 0.355 |
| EMC-BAC-2 | 1.16 | 1.15 | 1.04 | 0.947 | 1.04 | 0.904 | 0.84 | 0.864 | 0.955 | 0.962 | 0.449 | 0.613 | 0.544 | 0.517 | 0.537 | 0.513 | 0.463 | 0.509 | 0.495 |
| EPLC-272H | 0.352 | 0.324 | 0.175 | 0.175 | 0.176 | 0.318 | 0.279 | 0.322 | 0.317 | 0.297 | 0.384 | 0.361 | 0.285 | 0.337 | 0.374 | 0.316 | 0.326 | 0.306 | 0.287 |
| H3255 | 0.95 | 0.932 | 1 | 0.791 | 0.554 | 0.696 | 0.646 | 0.766 | 0.726 | 0.523 | 0.469 | 0.477 | 0.511 | 0.442 | 0.297 | 0.301 | 0.327 | 0.336 | 0.31 |
| HARA | 0.288 | 0.358 | 0.337 | 0.286 | 0.275 | 0.801 | 0.692 | 0.689 | 0.711 | 0.687 | 0.419 | 0.421 | 0.437 | 0.402 | 0.247 | 0.313 | 0.257 | 0.193 | 0.267 |
| HCC-15 | 1.23 | 1.25 | 1.22 | 1.13 | 1 | 0.406 | 0.364 | 0.414 | 0.36 | 0.342 | 0.738 | 0.772 | 0.722 | 0.75 | 0.794 | 0.73 | 0.737 | 0.752 | 0.713 |
| HCC-44 | 0.987 | 1.05 | 0.997 | 1.01 | 1.15 | 1.17 | 1.08 | 1.09 | 0.979 | 1.06 | 0.585 | 0.648 | 0.716 | 0.593 | 1.02 | 1.03 | 0.94 | 0.955 | 1.1 |
| HCC-78 | 0.694 | 0.723 | 0.634 | 0.474 | 0.5 | 0.847 | 0.737 | 0.889 | 0.787 | 0.842 | 0.21 |  | 0.189 | 0.223 | 0.405 | 0.474 | 0.488 | 0.514 | 0.472 |
| HCC-366 |  | 0.316 | 0.277 | 0.192 | 0.286 |  | 0.39 | 0.376 | 0.292 | 0.258 | 0.162 | 0.127 | 0.11 | 0.182 |  | 0.395 | 0.424 | 0.368 | 0.384 |
